Measurements taken from ChEMBL document CHEMBL4229381, “New cytokinin derivatives possess UVA and UVB photoprotective effect on human skin cells and prevent oxidative stress” (Eur J Med Chem, 2018).
Active and inactive are the calls of the source. The calls are words filed in the database; no cut-off is given here.

What was measured:
Nicotiana tabacum = assay: Growth promoting activity in tobacco callus assessed as callus weight at 10^-5 mol/L after 4 weeks relative to control; type: functional
Amaranthus caudatus [1] = assay: Growth promoting activity in Amaranthus caudatus var. atropurpurea seeds by measuring betacyanin at 10^-5 mol/L after 48 hrs relative to control; type: functional
Triticum aestivum = assay: Anti-senescent activity in leaf of Triticum aestivum cv. Hereward seedlings by measuring chlorophyll retention at 10^-4 mol/L after 4 days relative to control; type: functional
HaCaT [2] = assay: Cytotoxicity in human HaCaT cells assessed as reduction in cell viability at 50 uM after 24 hrs by resazurin dye-based fluorescence assay relative to control
BJ = assay: Cytotoxicity in human BJ cells assessed as reduction in cell viability at 50 uM after 24 hrs by resazurin dye-based fluorescence assay relative to control
[3] = Cytotoxicity in human NHDF cells assessed as cell viability at 3.9 uM after 24 hrs by neutral red uptake assay relative to control; type: cell-based; settings: read-out: Activity
[4] = Cytotoxicity in human NHDF cells assessed as cell viability at 7.8 uM after 24 hrs by neutral red uptake assay relative to control; type: cell-based; settings: read-out: Activity
[5] = Cytotoxicity in human NHDF cells assessed as cell viability at 15.6 uM after 24 hrs by neutral red uptake assay relative to control; type: cell-based; settings: read-out: Activity
[6] = Cytotoxicity in human NHDF cells assessed as cell viability at 31.3 uM after 24 hrs by neutral red uptake assay relative to control; type: cell-based; settings: read-out: Activity
[7] = Cytotoxicity in human NHDF cells assessed as cell viability at 62.5 uM after 24 hrs by neutral red uptake assay relative to control; type: cell-based; settings: read-out: Activity
[8] = Cytotoxicity in human NHDF cells assessed as cell viability at 125 uM after 24 hrs by neutral red uptake assay relative to control; type: cell-based; settings: read-out: Activity
[9] = Phototoxicity in human NHDF cells assessed as cell viability at 3.9 uM preincubated for 60 mins followed by 5 J/cm2 UVA irradiation and measured after 24 hrs by neutral red uptake assay relative to control; type: cell-based; settings: read-out: Activity
[10] = Phototoxicity in human NHDF cells assessed as cell viability at 7.8 uM preincubated for 60 mins followed by 5 J/cm2 UVA irradiation and measured after 24 hrs by neutral red uptake assay relative to control; type: cell-based; settings: read-out: Activity
[11] = Phototoxicity in human NHDF cells assessed as cell viability at 15.6 uM preincubated for 60 mins followed by 5 J/cm2 UVA irradiation and measured after 24 hrs by neutral red uptake assay relative to control; type: cell-based; settings: read-out: Activity
[12] = Phototoxicity in human NHDF cells assessed as cell viability at 31.3 uM preincubated for 60 mins followed by 5 J/cm2 UVA irradiation and measured after 24 hrs by neutral red uptake assay relative to control; type: cell-based; settings: read-out: Activity
[13] = Phototoxicity in human NHDF cells assessed as cell viability at 62.5 uM preincubated for 60 mins followed by 5 J/cm2 UVA irradiation and measured after 24 hrs by neutral red uptake assay relative to control; type: cell-based; settings: read-out: Activity
[14] = Phototoxicity in human NHDF cells assessed as cell viability at 125 uM preincubated for 60 mins followed by 5 J/cm2 UVA irradiation and measured after 24 hrs by neutral red uptake assay relative to control; type: cell-based; settings: read-out: Activity
[15] = Cytotoxicity in human HaCaT cells assessed as cell viability at 3.9 uM after 24 hrs by neutral red uptake assay relative to control; type: cell-based; settings: read-out: Activity
[16] = Cytotoxicity in human HaCaT cells assessed as cell viability at 7.8 uM after 24 hrs by neutral red uptake assay relative to control; type: cell-based; settings: read-out: Activity
[17] = Cytotoxicity in human HaCaT cells assessed as cell viability at 15.6 uM after 24 hrs by neutral red uptake assay relative to control; type: cell-based; settings: read-out: Activity
[18] = Cytotoxicity in human HaCaT cells assessed as cell viability at 31.3 uM after 24 hrs by neutral red uptake assay relative to control; type: cell-based; settings: read-out: Activity
[19] = Cytotoxicity in human HaCaT cells assessed as cell viability at 125 uM after 24 hrs by neutral red uptake assay relative to control; type: cell-based; settings: read-out: Activity
[20] = Phototoxicity in human HaCaT cells assessed as cell viability at 3.9 uM preincubated for 60 mins followed by 7.5 J/cm2 UVA irradiation and measured after 24 hrs by neutral red uptake assay relative to control; type: cell-based; settings: read-out: Activity
[21] = Phototoxicity in human HaCaT cells assessed as cell viability at 7.8 uM preincubated for 60 mins followed by 7.5 J/cm2 UVA irradiation and measured after 24 hrs by neutral red uptake assay relative to control; type: cell-based; settings: read-out: Activity
[22] = Phototoxicity in human HaCaT cells assessed as cell viability at 15.6 uM preincubated for 60 mins followed by 7.5 J/cm2 UVA irradiation and measured after 24 hrs by neutral red uptake assay relative to control; type: cell-based; settings: read-out: Activity
[23] = Phototoxicity in human HaCaT cells assessed as cell viability at 31.3 uM preincubated for 60 mins followed by 7.5 J/cm2 UVA irradiation and measured after 24 hrs by neutral red uptake assay relative to control; type: cell-based; settings: read-out: Activity
[24] = Phototoxicity in human HaCaT cells assessed as cell viability at 62.5 uM preincubated for 60 mins followed by 7.5 J/cm2 UVA irradiation and measured after 24 hrs by neutral red uptake assay relative to control; type: cell-based; settings: read-out: Activity
[25] = Phototoxicity in human HaCaT cells assessed as cell viability at 125 uM preincubated for 60 mins followed by 7.5 J/cm2 UVA irradiation and measured after 24 hrs by neutral red uptake assay relative to control; type: cell-based; settings: read-out: Activity
HaCaT [26] = assay: Cytoprotection against phototoxicity in human HaCaT cells assessed as increase in cell viability at 3.9 uM preincubated for 60 mins followed by 10 J/cm2 UVA irradiation and measured after 24 hrs by neutral red uptake assay; type: functional, cell-based
NHDF [27] = assay: Cytoprotection against phototoxicity in human NHDF cells assessed as increase in cell viability at 31.3 uM preincubated for 60 mins followed by 150 mJ/cm2 UVB irradiation and measured after 24 hrs by neutral red uptake assay; type: functional, cell-based
[28] = Antioxidant activity assessed as trolox equivalent of AAPH-induced radical scavenging activity at 1 uM pretreated for 15 mins followed by […] challenge measured every 3 mins over 90 mins by ORAC-FL assay; type: functional
Amaranthus caudatus [29] = assay: Growth promoting activity in Amaranthus caudatus var. atropurpurea seeds by measuring betacyanin at 10^-4 mol/L after 48 hrs relative to control; type: functional
NHDF [30] = assay: Cytoprotection against phototoxicity in human NHDF cells assessed as increase in cell viability at 3.9 to 31.3 uM preincubated for 60 mins followed by 7.5 J/cm2 UVA irradiation and measured after 24 hrs by neutral red uptake assay; type: functional, cell-based
NHDF [31] = assay: Cytoprotection against phototoxicity in human NHDF cells assessed as increase in cell viability at 3.9 to 31.3 uM preincubated for 60 mins followed by 150 mJ/cm2 UVB irradiation and measured after 24 hrs by neutral red uptake assay; type: functional, cell-based
Caenorhabditis elegans = assay: Protection against juglone-induced oxidative stress in Caenorhabditis elegans BA17 (fem-1) at 100 uM preincubated for 3 days followed by juglone addition measured every hour for 12 ro 14 hrs by inverted microscopic analysis; type: functional, organism-based
HaCaT [32] = assay: Cytoprotection against phototoxicity in human HaCaT cells assessed as increase in cell viability at 3.9 to 31.3 uM preincubated for 60 mins followed by 10 J/cm2 UVA irradiation and measured after 24 hrs by neutral red uptake assay; type: functional, cell-based

For `c1csc(CNc2[nH]cnc3ncnc2-3)c1`, the Activity (Nicotiana tabacum) was 102%, the Activity (Amaranthus caudatus [1]) was 95% and the Activity (Triticum aestivum) was 60%.
`c1nc(NCC2CCCO2)c2nc[nH]c2n1` (stereo not drawn) gave an Activity (HaCaT [2]) of less than 10%, an Activity (BJ) of less than 10% and a viability at 24 h, 3.9 µM [3] of 102%. It also gave a viability at 24 h, 7.8 µM [4] of 103%, a viability at 24 h, 15.6 µM [5] of 101% and a viability at 24 h, 31.3 µM [6] of 102%. It also gave a viability at 24 h, 62.5 µM [7] of 102%, a viability at 24 h, 125 µM [8] of 101% and a viability at 24 h, 3.9 µM [9] of 99%. The viability at 24 h, 7.8 µM [10] was 101%, the viability at 24 h, 15.6 µM [11] was 100% and the viability at 24 h, 31.3 µM [12] was 101%. For the same compound, the viability at 24 h, 62.5 µM [13] was 100%, the viability at 24 h, 125 µM [14] was 103% and the viability at 24 h, 3.9 µM [15] was 102%. It also gave a viability at 24 h, 7.8 µM [16] of 104%, a viability at 24 h, 15.6 µM [17] of 102% and a viability at 24 h, 31.3 µM [18] of 104%. It also gave a viability at 24 h, 125 µM [19] of 102%, a viability at 24 h, 3.9 µM [20] of 101% and a viability at 24 h, 7.8 µM [21] of 103%. The viability at 24 h, 15.6 µM [22] was 106%, the viability at 24 h, 31.3 µM [23] was 113% and the viability at 24 h, 62.5 µM [24] was 118%. For the same compound, the viability at 24 h, 125 µM [25] was 119%, the Activity (HaCaT [26]) was “Active” and the Activity (NHDF [27]) was “Active”. The Activity [28] was less than 0.05 equiv, the Activity (Nicotiana tabacum) was 110% and the Activity (Amaranthus caudatus [29]) was 109%. The Activity (Triticum aestivum) was 114%.
In the case of `c1coc(CNc2ncnc3c2ncn3C2CCCO2)c1` (stereo not drawn), the Activity (NHDF [30]) is reported as “Active”, the Activity (NHDF [31]) is reported as “Active” and the Activity (Nicotiana tabacum) is reported as 111%. The Activity (Amaranthus caudatus [29]) was 70%, the Activity (Triticum aestivum) was 125% and the Activity (Caenorhabditis elegans) was “Active”.
With `c1coc(CNc2ncnc3[nH]cnc23)c1` [KINETIN] the Activity (NHDF [30]) was “Active”, the Activity (NHDF [31]) was “Active” and the Activity [28] was 0.71 equiv. The Activity (Nicotiana tabacum) was 101%, the Activity (Amaranthus caudatus [1]) was 68% and the Activity (Triticum aestivum) was 98%.
For `O=C(/C=C/c1ccc(O)c(O)c1)O[C@H](Cc1ccc(O)c(O)c1)C(=O)O`, the Activity (NHDF [30]) was “Active”, the Activity (HaCaT [32]) was “Active” and the Activity (HaCaT [26]) was “Active”. For the same compound, the Activity (NHDF [31]) was “Active” and the Activity [28] was 9.14 equiv.
Compound `Cc1ccsc1CNc1ncnc2c1ncn2C1CCCO1` (stereo not drawn) has an Activity (Nicotiana tabacum) of 99% and an Activity (Triticum aestivum) of 110%.
